The text below walks through data of patent US20160271139A1, “METHOD FOR NON-TOXIC TREATMENT FOR DRUG WITHDRAWAL” (DEMERX, INC., priority 2013, published 2016).

A short description of the series: Plasma noribogaine pharmacokinetics in healthy volunteers (Example 7). It is filed as in vivo, human. The note with it: for AUC0-216 / AUC0-∞ / CL/F / Tmax / t1/2: mean.
Setting [1] is: human plasma, single oral 3 mg (n = 6).
Where [2] appears, read: human plasma, single oral 10 mg (n = 6).
The mark [3] stands for this setting: human plasma, single oral 30 mg (n = 6).
Setting [4] is: human plasma, single oral 60 mg (n = 6).

As for `CC[C@H]1C[C@H]2C[C@H]3c4[nH]c5ccc(O)cc5c4CCN(C2)[C@@H]13` [noribogaine], where the note is “human plasma, 3-60 mg”, the “Dose proportionality of Cmax and AUC” value is “increased linearly with dose”. Further, where the note is “human plasma, across dose groups”, the Mean half-life estimates was 28 to 50 h. For the same molecule, the “Time of peak concentrations after oral dosing” value (human plasma, across dose groups 3-60 mg) fell in the range of 2 to 3 h. Besides, under setting [1], the AUC0-216 amounted to 72.2 ng·h/mL, the “AUC0-∞” value was determined as 74.2 ng·h/mL, the CL/F is reported as 41.4 L/h and the time to peak (Tmax) was 1.9 h. Further, the t1/2 under setting [1] is 40.9 h. Also, under setting [2], the AUC0-216 worked out at 251.4 ng·h/mL, the “AUC0-∞” value came to 254.5 ng·h/mL, the apparent clearance (CL/F) amounted to 42.3 L/h and the time of peak concentration (Tmax) turned out to be 2.9 h. The t1/2 under setting [2] came out at 49.2 h. Also, under setting [3], the AUC0-216 came to 677.6 ng·h/mL, the “AUC0-∞” value came out at 700.4 ng·h/mL, the apparent clearance CL/F worked out at 46.9 L/h and the time to peak (Tmax) amounted to 1.8 h. Further, under setting [3], the t1/2 was 27.6 h. Besides, under setting [4], the AUC0-216 was 1935.4 ng·h/mL, the “AUC0-∞” value was found to be 1962.2 ng·h/mL, the CL/F is reported as 34.0 L/h and the Tmax is 2.4 h. For the same molecule, the t1/2 under setting [4] was determined as 29.1 h. The same molecule had a Volume of distribution (human, across dose groups) of 1417 to 3086 L.
